From publication PMC6018403 (Frontiers in Pharmacology, 2018)
Where two headings read alike, the source gives them in different places.

Test: Multi-component pharmacokinetic study of GQD, GQD-GC and single herb extracts in rats (plasma, LC/MS/MS)
Assay type: in vivo, Sprague-Dawley rats
Conditions: for AUC(0-t): po, read-out: AUClast; for AUC(0-t) / Cmax / half-life / Tmax: plasma; for half-life: read-out: T1/2 (converted); for Tmax: read-out: Tmax
Experimental: Male Sprague-Dawley rats (220–250 g) were used for PK study, and the details were described in Supplemental Data. All procedures were in accordance with the National Institutes of Health Guide for the Care and Use of Laboratory Animals.
For PK study of GQD and its component herbs, rats were randomly divided into six groups (n = 10 for each group) before oral administration.
All blood samples were immediately centrifuged at 6,000 rpm (4°C) for 20 min to obtain plasma. The plasma samples were stored at −80°C.
A Finnigan TSQ Quantum triple quadrupole mass spectrometer was connected to a Surveyor HPLC via ESI interface (ThermoFisher). High purity nitrogen was used as the sheath and auxiliary gas; Ultra-high purity argon was used as the collision gas (1.5 mTorr). Q1 and Q3 quadrupoles were set at unit resolution. […] The column temperature was 40°C. The mobile phase consisted of acetonitrile containing 2% (v/v) methanol (A) and water containing 0.1% (v/v) formic acid (B). […] An aliquot of 5 μL was injected for analysis. UV spectra were obtained by scanning from 200 to 400 nm. The mass spectrometer was operated in the (+)-ESI mode. The optimized parameters were as follows: sheath gas (N2), 50 arb; auxiliary gas (N2), 5 arb; spray voltage, 4.0 kV; capillary temperature, 330°C; collision energy, see Table S1. Analytes were detected in the selected reaction monitoring (SRM) mode. Data were processed by Xcalibur 2.0.7 software (ThermoFisher).
LC/MS/MS calibration and quantitation data were processed with Xcalibur 2.0.7 software (ThermoFisher). The maximal plasma concentrations (Cmax) and their time of occurrence (Tmax) were obtained directly from the measured data. Other pharmacokinetic parameters were calculated by non-compartment or compartment models using WinNonlin® software (v6.1, Pharsight). Unless otherwise stated, results were expressed as the mean ± SD. Statistical significance in differences of the means was determined by Student's t–test, with a significance level of P < 0.05.
Herbal materials and extracts.
The four component herbs, Puerariae Lobatae Radix (Ge-Gen, GG), Scutellariae Radix (Huang-Qin, HQ), Coptidis Rhizoma (Huang-Lian, HL), and Glycyrrhizae Radix et Rhizoma Praeparata cum Melle (Gan-Cao, GC) were purchased from Tianheng Pharmacy. GQD was prepared by decocting the four component herbs […]
pre-extraction of Ge-Gen using 200 mL of water for 0.5 h. The decoctions were combined, filtered, and concentrated in vacuum at 50 °C. GQD-GC was prepared using the same procedure, except that Gan-Cao was removed from the formula. Final concentration of the GQD-GC extract was equivalent to 1.0 g of the crude drugs per mL. For single herb extracts, the herbs were decocted in 8-fold volume of water for […]
Final concentrations of the extracts were 1.0 g/mL for Ge-Gen, and 0.5 g/mL for Huang-Qin, Huang-Lian and […]
For pharmacokinetic study, Male Sprague-Dawley rats (220-250 g) were obtained from the Laboratory Animal Center of Peking University Health Science Center. The […]
The rats had free access to tap water and soy-free custom diet (Ke’ao Xieli Co.). All procedures were in accordance with the National Institutes of Health Guide for the Care and Use of Laboratory Animals […]
Experimental details for the PK study
1. Preparation of internal standard solution, calibration standard solutions, and quality control solutions […]
internal standard solution. Reference standard compounds were dissolved in the internal standard solution to prepare individual stock solutions (1.0 mg/mL). These […]
each compound. The standard solution was then serially diluted to obtain calibration […]
Quality control stock solutions were prepared at three concentration levels as high QC (HQC), middle QC (MQC), and low QC (LQC), based on linear ranges of the analytes.
2.1. Sample preparation for pharmacokinetic study
The calibration standard and quality control solutions for pharmacokinetic study were […]

[1] = male, Sprague-Dawley, rat, in vivo, GG (Ge-Gen) group: rats, oral extract 9.45 g/kg
[2] = male, Sprague-Dawley, rat, in vivo, GQD group: rats, oral GQD extract 18.9 g/kg
[3] = male, Sprague-Dawley, rat, in vivo, GQD-GC group (GQD without Gan-Cao): rats, oral 16.5 g/kg
[4] = male, Sprague-Dawley, rat, 18.9 g/kg, GQD group: rats, oral GQD extract 18.9 g/kg
[5] = male, Sprague-Dawley, rat, GQD group: rats, oral GQD extract 18.9 g/kg, read-out: Cmax
[6] = male, Sprague-Dawley, rat, GQD group: rats, oral GQD extract 18.9 g/kg
[7] = male, Sprague-Dawley, rat, GQD-GC group (GQD without Gan-Cao): rats, oral 16.5 g/kg
[8] = male, Sprague-Dawley, rat, HQ (Huang-Qin) group: rats, oral extract 3.54 g/kg
[9] = male, Sprague-Dawley, rat, 2.36 g/kg, GC (Gan-Cao) group: rats, oral extract 2.36 g/kg
[10] = male, Sprague-Dawley, rat, GC (Gan-Cao) group: rats, oral extract 2.36 g/kg, read-out: Cmax
[11] = male, Sprague-Dawley, rat, GC (Gan-Cao) group: rats, oral extract 2.36 g/kg

SMILES: O=c1c(-c2ccc(O)cc2)coc2cc(O[C@@H]3O[C@H](CO)[C@@H](O)[C@H](O)[C@H]3O)ccc12 [Compound 1, Daidzin]
- AUC(0-t) (male, Sprague-Dawley, rat, in vivo, 9.45 g/kg, GG (Ge-Gen) group: rats, oral extract 9.45 g/kg): 290 ± 42.2 ng·h/mL
- AUC(0-t) (male, Sprague-Dawley, rat, in vivo, 9.45 g/kg, Ge-Gen group: rats, oral 9.45 g/kg): 290 ± 42.2 ng·h/mL
- AUC(0-t) (male, Sprague-Dawley, rat, in vivo, 16.5 g/kg, GQD-GC group (GQD without Gan-Cao): rats, oral 16.5 g/kg): 282 ± 61.6 ng·h/mL
- AUC(0-t) (male, Sprague-Dawley, rat, in vivo, 18.9 g/kg, GQD group: rats, oral GQD extract 18.9 g/kg): 346 ± 30.3 ng·h/mL
- AUC(0-t) (male, Sprague-Dawley, rat, in vivo, 18.9 g/kg, GQD group: rats, oral GQD 18.9 g/kg (1.5-fold of clinical dosage)): > 300 ng·h/mL
- Cmax (male, Sprague-Dawley, rat, in vivo, GG (Ge-Gen) group: rats, oral extract 9.45 g/kg, read-out: Cmax): 58 ± 0.77 ng/mL
- half-life [1]: 0.74 ± 0.33 h
- Tmax [1]: 0.38 ± 0.04 h
- Cmax (male, Sprague-Dawley, rat, in vivo, GQD group: rats, oral GQD extract 18.9 g/kg, read-out: Cmax): 27.4 ± 3.34 ng/mL
- half-life [2]: 3.96 ± 1.02 h
- Tmax [2]: 0.88 ± 0.11 h
- Cmax (male, Sprague-Dawley, rat, in vivo, GQD-GC group (GQD without Gan-Cao): rats, oral 16.5 g/kg, read-out: Cmax): 52.4 ± 2.21 ng/mL
- half-life [3]: 1.63 ± 0.14 h
- Tmax [3]: 0.58 ± 0.24 h
- bioavailability in the GQD group compared with the Ge-Gen group (rats, oral): higher

SMILES: COc1c(O)cc(O)c2c(=O)cc(-c3ccccc3)oc12 [Compound 8, wogonin]
- AUC(0-t) (male, Sprague-Dawley, rat, 3.54 g/kg, HQ (Huang-Qin) group: rats, oral extract 3.54 g/kg): 473 ± 34.3 ng·h/mL
- AUC(0-t) (male, Sprague-Dawley, rat, 16.5 g/kg, GQD-GC group (GQD without Gan-Cao): rats, oral 16.5 g/kg): 156 ± 73.4 ng·h/mL
- AUC(0-t) [4]: 282 ± 11.3 ng·h/mL
- Cmax [5]: 12.9 ± 7.39 ng/mL
- half-life [6]: 6.63 ± 2.38 h
- Tmax [6]: 7.89 ± 0.99 h
- Cmax (male, Sprague-Dawley, rat, GQD-GC group (GQD without Gan-Cao): rats, oral 16.5 g/kg, read-out: Cmax): 10.2 ± 6.81 ng/mL
- half-life [7]: 5.64 ± 1.09 h
- Tmax [7]: 8 ± 2.12 h
- Cmax (male, Sprague-Dawley, rat, HQ (Huang-Qin) group: rats, oral extract 3.54 g/kg, read-out: Cmax): 38 ± 7.22 ng/mL
- half-life [8]: 5.45 ± 1.22 h
- Tmax [8]: 8.02 ± 2.48 h

SMILES: COc1ccc(-c2coc3cc(O)ccc3c2=O)cc1 [Compound 32, formononetin]
- AUC(0-t) [9]: 19.9 ± 7.99 ng·h/mL
- AUC(0-t) [4]: 94.2 ± 32.6 ng·h/mL
- Cmax [10]: 1.71 ± 1 ng/mL
- half-life [11]: 3.22 ± 0.87 h
- Tmax [11]: 0.33 ± 0.13 h
- Cmax [5]: 8.62 ± 0.39 ng/mL
- half-life [6]: 23.8 ± 16.8 h
- Tmax [6]: 2.92 ± 0.08 h
- plasma concentrations, effect of GQD compared with Gan-Cao (rats, oral): improved

SMILES: CC1(C)[C@@H](O)CC[C@]2(C)[C@H]3C(=O)C=C4[C@@H]5C[C@@](C)(C(=O)O)CC[C@]5(C)CC[C@@]4(C)[C@]3(C)CC[C@@H]12 [Compound 40, glycyrrhetinic acid]
- Cmax (GQD group: rats, oral GQD extract 18.9 g/kg): 371.14 ± 66.69 ng/mL
- AUC(0-t) [9]: 9630 ± 778 ng·h/mL
- AUC(0-t) [4]: 8480 ± 1300 ng·h/mL
- Cmax [10]: 359 ± 37.8 ng/mL
- half-life [11]: 6.87 ± 2.47 h
- Tmax [11]: 13.4 ± 0.78 h
- half-life [6]: 7.96 ± 2.56 h
